Source: PubChem BioAssay (NCI)
Several values for one entry are separate records, joined by “and”; a condition that tells them apart may be missing. Equal entries are not always repeated.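 Interpolation was linear, between the two tested concentrations surrounding the appropriate level; five concentrations were tested over 48 hours in 96-well plates. The concentration for 50% growth inhibition is given as GI50. TGI is the concentration that stops growth completely.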

How the values were obtained:
Assay in all cases: NCI tumour cell line growth inhibition, 48 h
K-562 leukemia = tested on: K-562 leukemia
UACC-257 melanoma = tested on: UACC-257 melanoma
786-0 renal = tested on: 786-0 renal
A549 NSCLC = tested on: A549 NSCLC
HCT-15 colon = tested on: HCT-15 colon
SF-268 CNS = tested on: SF-268 CNS
SK-MEL-2 melanoma = tested on: SK-MEL-2 melanoma
NCI-H522 lung = tested on: NCI-H522 lung
ACHN renal = tested on: ACHN renal
LOX IMVI melanoma = tested on: LOX IMVI melanoma

| SMILES | TGI (K-562 leukemia) [µM] | TGI (UACC-257 melanoma) [µM] | TGI (786-0 renal) [µM] | TGI (A549 NSCLC) [µM] | TGI (HCT-15 colon) [µM] | TGI (SF-268 CNS) [µM] | TGI (SK-MEL-2 melanoma) [µM] | TGI (NCI-H522 lung) [µM] | TGI (ACHN renal) [µM] | TGI (LOX IMVI melanoma) [µM] | GI50 (UACC-257 melanoma) [µM] | GI50 (786-0 renal) [µM] | GI50 (A549 NSCLC) | GI50 (HCT-15 colon) [µM] | GI50 (SF-268 CNS) | GI50 (SK-MEL-2 melanoma) [µM] | GI50 (LOX IMVI melanoma) [µM] | GI50 (NCI-H522 lung) [µM] | GI50 (ACHN renal) | GI50 (K-562 leukemia) [µM] |
| --- | --- | --- | --- | --- | --- | --- | --- | --- | --- | --- | --- | --- | --- | --- | --- | --- | --- | --- | --- | --- |
| Nc1ncn(C2C=C(CO)C(O)C2O)c(=O)n1 (centres undefined) | > 100 | > 100 | > 100 | > 100 | > 100 | > 100 | > 100 | > 100 | > 100 |  |  |  |  |  |  |  |  |  |  |  |
| COC(=O)C12CC3CC(C1)CC(C(=O)OC)(C3)C2 |  | > 100 | > 100 | > 100 | > 100 | > 100 |  | > 100 | > 100 | > 100 |  |  |  |  |  |  |  |  |  |  |
| CC[O-].CC[O-].O=C1C(c2ccccc2)=C([O-])c2ccccc21.O=C1C(c2ccccc2)=C([O-])c2ccccc21.[Ti+4] |  | > 100 | > 100 | > 100 | > 100 | > 100 | > 100 | > 100 | > 100 | > 100 | > 100 | > 100 | > 100 µM | > 100 | > 100 µM | > 100 | > 100 | > 100 | > 100 µM |  |
| O=[N+]([O-])c1ccc(N=Nc2c(O)ccc3ccccc23)cc1 | > 100 | > 100 | > 100 | > 100 | > 100 | > 100 | > 100 | > 100 | > 100 | > 100 |  |  | 28.2 µM and > 100 µM |  | 35.9 µM and > 100 µM |  |  | 35.9 | 31.3 µM and > 100 µM |  |
| COc1ccc2c(c1)CCc1[nH]c3ccccc3c1CCCC2 | > 10 | > 10 | > 10 | > 10 | > 10 | > 10 |  | > 10 | > 10 | > 10 |  |  |  |  |  |  |  |  |  |  |
| COc1cc(C(=O)C/C(CCC(=O)Nc2ccc(Cl)cc2C)=N/NC(=O)C(N)=O)ccc1O | > 100 | > 100 | > 100 | > 100 | > 100 | > 100 | > 100 | > 100 | > 100 | > 100 |  |  |  |  |  |  |  |  |  |  |
| Cc1cc(-c2nnc(N)nc2-c2ccc(F)cc2)cc(Cl)n1 | > 100 | > 100 | > 100 | > 100 | > 100 | > 100 | > 100 | > 100 | > 100 | > 100 | 78.9 | > 100 | > 100 µM | > 100 | > 100 µM | > 100 | > 100 | 55.9 | 73.3 µM | 59 |
| O=C([O][Hg][CH2]C1COCC([CH2][Hg][O]C(=O)c2ccccc2)O1)c1ccccc1 (centres undefined) | 11.9 | 2.85 | 30.5 | 27.2 |  | 30.7 | 29.6 |  | 3.71 | 4.2 | 1.45 | 16.8 | 12.6 µM |  | 16.6 µM | 13.2 | 1.73 |  | 1.91 µM | 2.61 |
| CCCCCCCCCCC(O)C1CCC(C(O)CCC(O)C2CCC(CCCCCCC[C@H](O)CC3=C[C@@H](C)OC3=O)O2)O1 (some centres undefined) | > 100 | > 100 | 53.9 | > 100 | > 100 | > 100 | > 100 | > 100 | > 100 | > 100 | 0.461 |  | 8.66 µM |  |  |  | 2.24 |  | > 100 µM | 2.18 |
| CC(C)CNc1nc(-c2ccccc2)nc2ccccc12 | 30.8 |  | 27.5 | 31.8 | > 100 | 37.4 | > 100 | > 100 | 29.5 | 28.3 |  | 14.4 | 15.1 µM | > 100 | 18.3 µM | 29.6 | 14.7 | 26.3 | 16 µM | 11.1 |
| CCCN1CCN(c2ccc3nc(-c4ccc5nc(-c6cc(OC)ccc6OC)[nH]c5c4)[nH]c3c2)CC1 |  | 39.2 | 3.41 | 3.64 | 3.36 | 43 | 37.2 | 3.68 | 3.06 | 3.26 | 20 | 1.93 | 1.85 µM | 1.74 | 18.6 µM | 19.7 | 1.73 | 1.74 | 1.69 µM |  |
| Cc1cc(C)nc(NS(=O)(=O)c2ccc(Nc3c4ccc(Cl)cc4nc4c(C(=O)Nc5ccc(S(=O)(=O)N=C(N)N)cc5)cccc34)cc2)n1 | > 100 | > 100 | > 100 |  | > 100 | > 100 |  | > 100 | > 100 | > 100 |  |  |  |  |  |  |  |  |  |  |
| CCc1nc(N)nc(C(=O)NCCNC(=O)c2nc(N)nc(CC)c2C)c1C | > 100 | > 100 | > 100 | > 100 | > 100 | > 100 | > 100 |  | > 100 | > 100 |  |  |  |  |  |  |  |  |  |  |
| CC(C)C1CCC/C=C/C=C/C=C/C=C/C(OC2OC(C)C(O)C(N)C2O)CC2OC(O)(CC(O)CC(O)C(O)CCC(=O)O1)CC(O)C2C(=O)O (centres undefined) | > 52.5 |  | > 52.5 | > 52.5 | > 52.5 | > 52.5 |  | > 52.5 | > 52.5 |  |  |  |  |  |  |  |  |  |  |  |
| Cc1cc(N2CCN(c3ccnc4cc(Cl)ccc34)CC2)nc(NC2CCCCC2)n1 | 5.64 | 3.92 | 3.05 | 4.48 | 3.44 | 5.41 |  | 3.8 |  | 3.19 | 1.86 | 1.57 | 2.02 µM | 1.55 | 2.34 µM |  | 1.73 | 1.93 |  | 2.1 |
| O=C1NC2CCC(C2)C1c1ccccc1 (centres undefined) | > 100 |  | > 100 | > 100 |  | > 100 |  |  | > 100 | > 100 |  |  |  |  |  |  |  |  |  |  |
| CC/C(=C(/CC)c1ccc(O)cc1)c1ccc([O-])cc1.CC/C(=C(/CC)c1ccc(O)cc1)c1ccc([O-])cc1.O=C([CH-]C(=O)c1ccccc1)c1ccccc1.O=C([CH-]C(=O)c1ccccc1)c1ccccc1.[Ti+4] | > 100 | 35.9 | 33.1 | 32.3 | 32.3 | 73.2 | 25.2 |  | 72.8 | 27.5 | 15.1 | 13.7 | 7.99 µM | 6.8 | 18 µM | 11.9 | 12.5 |  | 20.5 µM | 3.51 |
